Laboratory results published in patent US9822101B1, “Pyrazole compounds” (Eli Lilly and Company, priority 2015, dated 2017).

Assays:
[1] = molecular target: T1, mouse DPP-4 ((29-760)-His) (Mus musculus, UniProt P28843); assay: Enzymatic activity assay of mouse DPP-4 (Gly-Pro-AMC fluorescence); assay type: biochemical; conditions: Mean ± SEM; substrate 10 μM, 30 minutes; read-out: mDPP-4 IC50
T1 construct: mouse DPP-4 ((29-760)-His); His (C); made in house
Procedure: (§1) Human DPP-4 ((39-766)-His) and mouse DPP-4 ((29-760)-His) are purified for use in the assay. The final concentration of hDPP-4 and mDPP-4 in the assay is 0.04 nM and 0.22 nM respectively.
(§2) Inhibition of the catalytic activity of human and mouse DPP-4 by the compound in the present invention is monitored by the formation of product fluorescence AMC (7-amido-4-methylcoumarin hydrobromide) from substrate Gly-Pro-AMC (Sigma, G2761) on an Envision plate reader. The reaction is typically conducted by incubating the enzyme, test compound, and substrate (10 μM) in a 75 μl assay buffer (0.01% BSA, 0.1 mM EDTA, […], 0.01% Triton™-X100, 0.1 M NaCl at pH 7.5) for 30 minutes. After the reaction is stopped by the addition of 25 μl ZnSO4 (10 mM), the formation of fluorescent product AMC is measured on an Envision plate reader with the excitation wavelength at 355 nm and emission wavelength at 460 nm. The IC50 value is calculated typically from a 10-point dose titration curve using the 4-parameter logistic equation.

plasma DPP-4 = molecular target: T2, plasma DPP-4 (Mus musculus, UniProt P28843); assay: DPP-4 pharmacodynamics assay in mouse (plasma DPP-4 enzyme activity); assay type: in vivo; conditions: C57B/L6 lean mice, oral gavage, vehicle group = 0%
T2 construct: Plasma, isolated from the blood samples, is used to determine the plasma DPP-4 enzyme activity; from tissue; host or cells: plasma of C57B/L6 mice dosed with compound
T2 sequence (P28843 37-760 limits assumed): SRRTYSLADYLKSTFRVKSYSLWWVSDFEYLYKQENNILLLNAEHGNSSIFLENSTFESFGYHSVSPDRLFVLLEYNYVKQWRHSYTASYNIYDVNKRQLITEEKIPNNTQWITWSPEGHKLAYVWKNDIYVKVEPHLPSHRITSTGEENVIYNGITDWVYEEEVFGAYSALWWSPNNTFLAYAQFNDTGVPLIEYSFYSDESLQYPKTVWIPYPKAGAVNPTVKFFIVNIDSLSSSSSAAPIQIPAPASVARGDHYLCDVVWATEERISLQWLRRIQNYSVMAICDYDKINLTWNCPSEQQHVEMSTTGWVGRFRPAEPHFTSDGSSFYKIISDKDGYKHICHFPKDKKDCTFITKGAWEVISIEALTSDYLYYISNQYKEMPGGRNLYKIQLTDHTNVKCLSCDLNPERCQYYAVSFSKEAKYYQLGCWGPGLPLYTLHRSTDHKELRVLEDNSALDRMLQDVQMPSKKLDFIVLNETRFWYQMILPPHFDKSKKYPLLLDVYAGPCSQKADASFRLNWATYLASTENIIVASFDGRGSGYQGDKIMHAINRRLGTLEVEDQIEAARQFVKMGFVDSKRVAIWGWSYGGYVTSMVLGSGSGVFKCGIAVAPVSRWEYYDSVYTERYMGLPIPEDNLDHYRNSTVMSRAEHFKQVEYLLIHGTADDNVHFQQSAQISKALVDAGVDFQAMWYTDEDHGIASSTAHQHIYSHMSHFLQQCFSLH
Procedure: To determine the in vivo DPP-4 inhibition by MetAP2 plus DPP-4 dual inhibitor compounds, C57B/L6 lean mice are administrated with the compound in fed states and then DPP-4 target engagement in plasma is measured. Animals are weighed and randomized by body weight. Each mouse is dosed via oral gavage with vehicle or testing compound formulated with vehicle for up to 3 times. The first dose is administrated at 9˜10 am on day 1. The second dose is administrated at 16:30˜17:30 on day 1. The third dose is administrated at 9˜10 am on day 2. The mice are fasted for 6 hours after the last dose before termination at ˜[…] on day 2. Blood samples are collected at 1 hour after the first dosing and upon termination. EDTA-K2 at final concentration of 5 mM is used as an anticoagulant. Plasma, isolated from the blood samples, is used to determine the plasma DPP-4 enzyme activity. Plasma DPP-4 enzyme activity in the present invention is monitored by the formation rate of fluorescence AMC from substrate Gly-Pro-AMC (Sigma, G2761) via Envision plate reader. […] Fluorescence signal is read immediately after the start of the reaction in kinetic model in Envision plate reader. […] The plasma DPP-4 activity is calculated from reaction velocity. […]

human MetAP2 = molecular target: T3, human MetAP2 (Homo sapiens, UniProt P50579); assay: Enzymatic activity assay of human MetAP2 (LC/MS product peptide); assay type: biochemical; conditions: Mean ± SEM; substrate 150 μM, 40 minutes; read-out: hMetAP2 IC50
T3 construct: Full length MetAP2 (human and mouse) and MetAP1 (human) proteins are generated from Sf9 cells; made in house; host or cells: Sf9 cells
T3 sequence (P50579 whole entry): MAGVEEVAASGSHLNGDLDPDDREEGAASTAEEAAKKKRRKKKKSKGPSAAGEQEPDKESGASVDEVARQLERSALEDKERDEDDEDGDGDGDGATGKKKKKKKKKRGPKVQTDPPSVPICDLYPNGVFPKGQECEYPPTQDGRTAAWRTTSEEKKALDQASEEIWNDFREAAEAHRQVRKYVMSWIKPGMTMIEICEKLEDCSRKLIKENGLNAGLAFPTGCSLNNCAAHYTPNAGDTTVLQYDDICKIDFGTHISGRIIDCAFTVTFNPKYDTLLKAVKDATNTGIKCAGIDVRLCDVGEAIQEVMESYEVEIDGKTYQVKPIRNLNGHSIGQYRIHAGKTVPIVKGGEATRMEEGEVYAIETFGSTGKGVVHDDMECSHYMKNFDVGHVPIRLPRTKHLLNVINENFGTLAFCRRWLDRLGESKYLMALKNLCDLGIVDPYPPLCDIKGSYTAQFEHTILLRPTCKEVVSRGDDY
Procedure: (§3) Full length MetAP2 (human and mouse) and MetAP1 (human) proteins are generated from Sf9 cells using procedure similar to that described in Biochemistry 2003, 42, 5035-5042. MetAP2 and MetAP1 are purified in the presence of 5 mM MnCl2 and 2 mM CoCl2 respectively, and stored at −78° C. before use.
(§4) Inhibition of the catalytic activity of human and mouse MetAP2 by compounds in the present invention is measured by monitoring the formation of the product peptide (Gly-Lys-Val-Lys-Val-Gly-Val-Asn-Gly) from the substrate peptide (Met-Gly-Lys-Val-Lys-Val-Gly-Val-Asn-Gly) via LC/MS. The reaction is typically conducted by incubating the enzyme, test compound and substrate (150 μM) in a 100 μl assay buffer (50 mM HEPES, 100 mM NaCl, […], 0.17 mM Triton™ X-100 μl at pH 7.5) for 40 minutes. After the reaction is stopped by the addition of 200 μl CH3CN, the levels of product and remaining substrate are quantified with a mass spectrometer. The activity of human MetAP1 is monitored by the formation of the fluorescent product rhodamine-methionine from the substrate methionine-rhodamine-methionine on a spectrophotometer with the excitation light at 460 nm and emission light at 535 nm. The reaction is typically conducted by incubating the enzyme, test compound and substrate (50 μM) in a 100 μl assay buffer (50 mM HEPES, 100 mM NaCl, 0.1% BSA, 0.05% Tween®-20, 50 μM CoCl2) for 60 minutes. […]

human MetAP1 = molecular target: T4, human MetAP1 (Homo sapiens, UniProt P53582); assay: Enzymatic activity assay of human MetAP1 (fluorescence, rhodamine-methionine); assay type: biochemical; conditions: substrate 50 μM, 60 minutes; read-out: hMetAP1 IC50
T4 construct: Full length MetAP2 (human and mouse) and MetAP1 (human) proteins are generated from Sf9 cells; made in house; host or cells: Sf9 cells
Procedure: as §3, §4

obese DIO mice = assay: Therapeutic weight loss effect in high fat diet induced obese (DIO) mice; assay type: in vivo, mouse; conditions: day 14
Procedure: To determine the therapeutic weight loss effects and improvement of metabolic parameters, the compound from the invention is tested in the high fat diet (HFD) feeding induced obese mouse model (DIO mice). In this model, C57/Bl6J male mouse is fed with the 60% HFD (D12492i, Research Diets) for 16˜28 weeks to establish obesity with body weight reaching around 50 g. The mice will gradually increase the body weight to about 50 g and maintain that weight in this obese state. Test compound (via the vehicle of 0.5% HEC plus 0.25% Tween®-80 at 5 mL/kg) is administered orally to the obese DIO mice once or twice daily throughout the study duration. The dose-dependent weight loss of obese DIO mice for Example 1 of the oral treatment at 20 mg/kg and 60 mg/kg once daily is about 4% and 17% weight loss compared to the vehicle group at day 14, respectively. The data support that the compound of Example 1 is associated with desired weight loss and could offer a therapeutic weight loss effect.

mouse MetAP2 = molecular target: T5, mouse MetAP2 (Mus musculus, UniProt O08663); assay: Enzymatic activity assay of mouse MetAP2 (LC/MS product peptide); assay type: biochemical; conditions: Mean ± SEM; substrate 150 μM, 40 minutes; read-out: mMetAP2 IC50
T5 construct: Full length MetAP2 (human and mouse) and MetAP1 (human) proteins are generated from Sf9 cells; made in house; host or cells: Sf9 cells
T5 sequence (O08663 whole entry): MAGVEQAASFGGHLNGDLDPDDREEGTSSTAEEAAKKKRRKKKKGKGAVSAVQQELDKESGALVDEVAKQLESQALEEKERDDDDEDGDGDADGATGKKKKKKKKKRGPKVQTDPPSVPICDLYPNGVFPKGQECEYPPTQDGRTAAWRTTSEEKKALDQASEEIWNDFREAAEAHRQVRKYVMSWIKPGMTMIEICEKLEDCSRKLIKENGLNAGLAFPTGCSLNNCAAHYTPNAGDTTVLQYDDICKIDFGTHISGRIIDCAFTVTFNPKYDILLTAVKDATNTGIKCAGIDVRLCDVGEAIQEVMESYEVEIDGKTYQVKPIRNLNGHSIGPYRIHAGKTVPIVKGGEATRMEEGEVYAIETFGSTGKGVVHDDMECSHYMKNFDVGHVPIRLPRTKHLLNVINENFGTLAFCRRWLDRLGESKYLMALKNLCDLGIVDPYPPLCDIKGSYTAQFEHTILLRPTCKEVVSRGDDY
Procedure: as §3, §4

[2] = molecular target: T6, Human DPP-4 ((39-766)-His) (Homo sapiens, UniProt P27487); assay: Enzymatic activity assay of human DPP-4 (Gly-Pro-AMC fluorescence); assay type: biochemical; conditions: Mean ± SEM; substrate 10 μM, 30 minutes; read-out: hDPP-4 IC50
T6 construct: Human DPP-4 ((39-766)-His); His (C); made in house
T6 sequence (P27487 39-766): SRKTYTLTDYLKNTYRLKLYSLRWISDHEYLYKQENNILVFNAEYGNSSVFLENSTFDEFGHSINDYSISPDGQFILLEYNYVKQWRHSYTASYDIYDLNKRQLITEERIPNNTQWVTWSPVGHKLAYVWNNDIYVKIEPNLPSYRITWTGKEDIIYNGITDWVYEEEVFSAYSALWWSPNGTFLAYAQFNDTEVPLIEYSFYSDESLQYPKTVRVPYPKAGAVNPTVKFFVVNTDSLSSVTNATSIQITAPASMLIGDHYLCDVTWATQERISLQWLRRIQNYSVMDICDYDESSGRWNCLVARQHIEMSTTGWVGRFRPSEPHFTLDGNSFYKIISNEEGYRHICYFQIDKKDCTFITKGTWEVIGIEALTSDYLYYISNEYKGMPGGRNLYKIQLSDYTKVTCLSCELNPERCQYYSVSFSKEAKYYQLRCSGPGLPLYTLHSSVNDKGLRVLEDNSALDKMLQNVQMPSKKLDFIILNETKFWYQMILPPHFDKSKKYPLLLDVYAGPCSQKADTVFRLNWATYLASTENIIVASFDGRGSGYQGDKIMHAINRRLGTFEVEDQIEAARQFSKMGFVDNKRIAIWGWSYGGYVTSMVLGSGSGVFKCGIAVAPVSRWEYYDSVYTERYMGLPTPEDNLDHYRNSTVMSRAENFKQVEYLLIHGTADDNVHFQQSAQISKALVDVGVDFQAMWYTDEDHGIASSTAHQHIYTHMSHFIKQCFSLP
Procedure: as §1, §2

T1 sequence (P28843 29-760): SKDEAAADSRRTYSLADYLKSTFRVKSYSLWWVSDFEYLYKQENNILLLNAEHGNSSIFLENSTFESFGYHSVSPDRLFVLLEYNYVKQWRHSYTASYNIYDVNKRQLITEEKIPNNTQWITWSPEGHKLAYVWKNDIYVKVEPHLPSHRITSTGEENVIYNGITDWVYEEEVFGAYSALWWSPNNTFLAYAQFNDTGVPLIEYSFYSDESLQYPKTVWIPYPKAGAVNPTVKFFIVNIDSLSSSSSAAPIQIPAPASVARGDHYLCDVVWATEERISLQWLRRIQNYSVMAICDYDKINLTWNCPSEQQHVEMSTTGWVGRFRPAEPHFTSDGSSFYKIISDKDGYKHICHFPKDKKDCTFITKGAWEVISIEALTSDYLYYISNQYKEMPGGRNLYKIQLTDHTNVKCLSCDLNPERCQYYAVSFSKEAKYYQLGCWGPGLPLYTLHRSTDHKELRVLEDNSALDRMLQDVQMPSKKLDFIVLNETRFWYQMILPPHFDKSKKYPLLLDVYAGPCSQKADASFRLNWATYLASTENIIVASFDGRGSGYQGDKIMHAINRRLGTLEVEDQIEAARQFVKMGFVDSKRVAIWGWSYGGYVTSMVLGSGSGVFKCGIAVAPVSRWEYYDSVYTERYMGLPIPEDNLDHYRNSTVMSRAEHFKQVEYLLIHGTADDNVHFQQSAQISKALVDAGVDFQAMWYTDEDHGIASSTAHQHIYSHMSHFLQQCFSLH

SMILES: N[C@H]1CN(c2ncc(Oc3c[nH]nc3C3=CCC(F)(F)CC3)cn2)C[C@@H]1c1cc(F)c(F)cc1F [Example 1, (3R,4S)-1-[5-[[3-(4,4-Difluorocyclohexen-1-yl)-1H-pyrazol-4-yl]oxy]pyrimidin-2-yl]-4-(2,4,5-trifluorophenyl)pyrrolidin-3-amine]
- IC50 [1]: 26 ± 11 nM
- plasma DPP-4 inhibition (plasma DPP-4; 1 hour after the first dosing): 86%
- plasma DPP-4 inhibition (plasma DPP-4; upon termination (6 hours after the last dose, day 2)): 83%
- IC50 (human MetAP2): 9 ± 3 nM
- IC50 (human MetAP1): > 30000 nM
- weight loss compared to the vehicle group (obese DIO mice; oral 20 mg/kg once daily): about 4%
- weight loss compared to the vehicle group (obese DIO mice; oral 60 mg/kg once daily): ~17%
- IC50 (mouse MetAP2): 36 ± 34 nM
- IC50 [2]: 6 ± 2 nM
